In patent US6441195B1, “Substituted sulphonylamino(thio) carbonyl compounds” (Bayer Aktiengesellschaft, priority 1995, dated 2002):

Key:
Type in all cases: in vivo
weeds [1] = assay: Pre-emergence test (greenhouse), activity against weeds; settings: in words
How it was run: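 Three weeks after treatment, % damage relative to untreated plants is scored, 0% meaning no effect. Seeds in normal soil received, roughly one day post-sowing, an aqueous dilution of an acetone/emulsifier concentrate, with the rate per unit area, not concentration, being the relevant dose.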

weeds [2] = assay: Post-emergence test (greenhouse), activity against weeds; settings: in words
Method: (§1) Solvent: 5 parts by weight of acetone
(§2) Emulsifier: 1 part by weight of alkylaryl polyglycol ether
(§3) To produce a suitable preparation of active compound, 1 part by weight of active compound is mixed with the stated amount of solvent, the stated amount of emulsifier is added and the concentrate is diluted with water to the desired concentration.
(§4) Test plants which have a height of 5-15 cm are sprayed with the preparation of the active compound in such a way as to apply the particular amounts of active compound desired per unit area. The concentration of the spray liquor is chosen so that the particular amounts of active compound desired are applied in 2000 l of water/ha.
(§5) After three weeks, the degree of damage to the plants is rated in % damage in comparison to the development of the untreated control.
(§6) 0%=no action (like untreated control)

Maize [3] = assay: Post-emergence test/greenhouse, Maize; settings: greenhouse, after three weeks
Method: as §1, §2, §3, §4, §5, §6

Digitaria = assay: Post-emergence test/greenhouse, Digitaria; settings: greenhouse, after three weeks
Method: as §1, §2, §3, §4, §5, §6

Echinochloa = assay: Post-emergence test/greenhouse, Echinochloa; settings: greenhouse, after three weeks
Method: as §1, §2, §3, §4, §5, §6

Lolium [4] = assay: Post-emergence test/greenhouse, Lolium; settings: greenhouse, after three weeks
Method: as §1, §2, §3, §4, §5, §6

Sorghum [5] = assay: Post-emergence test/greenhouse, Sorghum; settings: greenhouse, after three weeks
Method: as §1, §2, §3, §4, §5, §6

Gallium = assay: Post-emergence test/greenhouse, Gallium; settings: greenhouse, after three weeks
Method: as §1, §2, §3, §4, §5, §6

Matricaria [6] = assay: Post-emergence test/greenhouse, Matricaria; settings: greenhouse, after three weeks
Method: as §1, §2, §3, §4, §5, §6

Stellaria = assay: Post-emergence test/greenhouse, Stellaria; settings: greenhouse, after three weeks
Method: as §1, §2, §3, §4, §5, §6

Maize [7] = assay: Pre-emergence test/Greenhouse, Maize
How it was run: (§7)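 Emulsifier-formulated compound applied by soil watering ~24 h after sowing; damage scored at three weeks as % of untreated control.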

Soya beans = assay: Pre-emergence test/Greenhouse, Soya beans; settings: in vivo
How it was run: as §7

Lolium [8] = assay: Pre-emergence test/Greenhouse, Lolium; settings: after three weeks
How it was run: as §7

Sorghum [9] = assay: Pre-emergence test/Greenhouse, Sorghum; settings: after three weeks
How it was run: as §7

Ambrosia = assay: Pre-emergence test/Greenhouse, Ambrosia; settings: after three weeks
How it was run: as §7

Matricaria [10] = assay: Pre-emergence test/Greenhouse, Matricaria; settings: after three weeks
How it was run: as §7

Amaranthus = assay: Post-emergence test/greenhouse, Amaranthus; settings: greenhouse, after three weeks
Method: as §1, §2, §3, §4, §5, §6

Poa = assay: Pre-emergence test/Greenhouse, Poa; settings: after three weeks
How it was run: as §7

Solanum = assay: Pre-emergence test/Greenhouse, Solanum; settings: after three weeks
How it was run: as §7

SMILES	activity against weeds (weeds [1])	activity against weeds (weeds [2])	degree of damage, Maize (Maize [3]; 60 g of ai./ha)	degree of damage, Digitaria (Digitaria; 60 g of ai./ha)	degree of damage, Echinochloa (Echinochloa; 60 g of ai./ha)	degree of damage, Lolium (Lolium [4]; 60 g of ai./ha)	degree of damage, Sorghum (Sorghum [5]; 60 g of ai./ha)	degree of damage, Gallium (Gallium; 60 g of ai./ha)	degree of damage, Matricaria (Matricaria [6]; 60 g of ai./ha)	degree of damage, Stellaria (Stellaria; 60 g of ai./ha)	degree of damage to the plants (% damage vs untreated control), Maize (Maize [7]; in vivo)	degree of damage to the plants (% damage vs untreated control), Soya beans (Soya beans)	degree of damage to the plants (% damage vs untreated control), Lolium (Lolium [8]; 30 g of ai./ha)	degree of damage to the plants (% damage vs untreated control), Poa (Poa; 30 g of ai./ha)	degree of damage to the plants (% damage vs untreated control), Sorghum (Sorghum [9]; 30 g of ai./ha)	degree of damage to the plants (% damage vs untreated control), Ambrosia (Ambrosia; 30 g of ai./ha)	degree of damage to the plants (% damage vs untreated control), Matricaria (Matricaria [10]; 30 g of ai./ha)	degree of damage to the plants (% damage vs untreated control), Solanum (Solanum; 30 g of ai./ha)	degree of damage, Amaranthus (Amaranthus; 60 g of ai./ha)	other results
CCOC(=O)c1cccc(C)c1S(=O)(=O)NC(=O)n1nc(SC)n(C)c1=O [Example 7]	very strong activity against weeds	very strong activity against weeds	15%	95%	95%	95%	100%	95%	95%	100%	0%	0%								degree of damage to the plants (% damage vs untreated control), Lolium (Lolium [8]; 60 g of ai./ha): 95%; degree of damage to the plants (% damage vs untreated control), Sorghum (Sorghum [9]; 60 g of ai./ha): 95%; degree of damage to the plants (% damage vs untreated control), Ambrosia (Ambrosia; 60 g of ai./ha): 95%; degree of damage to the plants (% damage vs untreated control), Matricaria (Matricaria [10]; 60 g of ai./ha): 95%
CCc1nn(C(=O)NS(=O)(=O)c2c(C)csc2C(=O)OC)c(=O)n1C [Example 5]	very strong activity against weeds	very strong activity against weeds									0%	20%	95%	95%	90%	95%	95%	95%		degree of damage, Maize (Maize [3]; 30 g of ai./ha): 10%; degree of damage, Digitaria (Digitaria; 30 g of ai./ha): 95%; degree of damage, Echinochloa (Echinochloa; 30 g of ai./ha): 80%; degree of damage, Lolium (Lolium [4]; 30 g of ai./ha): 70%; degree of damage, Sorghum (Sorghum [5]; 30 g of ai./ha): 90%; degree of damage, Amaranthus (Amaranthus; 30 g of ai./ha): 100%; degree of damage, Matricaria (Matricaria [6]; 30 g of ai./ha): 95%; degree of damage, Stellaria (Stellaria; 30 g of ai./ha): 90%
CCSc1nn(C(=O)NS(=O)(=O)c2c(C)cccc2C(=O)OC)c(=O)n1C [Example 141]	very strong activity against weeds	very strong activity against weeds									30%	0%								degree of damage, Maize (Maize [3]; 30 g of ai./ha): 10%; degree of damage, Digitaria (Digitaria; 30 g of ai./ha): 70%; degree of damage, Echinochloa (Echinochloa; 30 g of ai./ha): 90%; degree of damage, Sorghum (Sorghum [5]; 30 g of ai./ha): 90%; degree of damage, Amaranthus (Amaranthus; 30 g of ai./ha): 100%; degree of damage, Gallium (Gallium; 30 g of ai./ha): 90%; degree of damage, Matricaria (Matricaria [6]; 30 g of ai./ha): 70%; degree of damage, Stellaria (Stellaria; 30 g of ai./ha): 95%; degree of damage to the plants (% damage vs untreated control), Lolium (Lolium [8]; 15 g of ai./ha): 90%; degree of damage to the plants (% damage vs untreated control), Poa (Poa; 15 g of ai./ha): 80%; degree of damage to the plants (% damage vs untreated control), Sorghum (Sorghum [9]; 15 g of ai./ha): 80%; degree of damage to the plants (% damage vs untreated control), Ambrosia (Ambrosia; 15 g of ai./ha): 90%; degree of damage to the plants (% damage vs untreated control), Matricaria (Matricaria [10]; 15 g of ai./ha): 80%; degree of damage to the plants (% damage vs untreated control), Solanum (Solanum; 15 g of ai./ha): 90%
COC(=O)c1cccc(C)c1S(=O)(=O)NC(=O)n1nc(OC)n(C2CC2)c1=O [Example 164]	very strong activity against weeds	very strong activity against weeds		60%	80%	70%	95%	90%	100%	95%	20%	0%							100%	degree of damage to the plants (% damage vs untreated control), Lolium (Lolium [8]; 8 g of ai./ha): 95%; degree of damage to the plants (% damage vs untreated control), Poa (Poa; 8 g of ai./ha): 95%; degree of damage to the plants (% damage vs untreated control), Sorghum (Sorghum [9]; 8 g of ai./ha): 90%; degree of damage to the plants (% damage vs untreated control), Ambrosia (Ambrosia; 8 g of ai./ha): 100%; degree of damage to the plants (% damage vs untreated control), Matricaria (Matricaria [10]; 8 g of ai./ha): 70%; degree of damage to the plants (% damage vs untreated control), Solanum (Solanum; 8 g of ai./ha): 95%
CCOc1nn(C(=O)NS(=O)(=O)c2c(C)csc2C(=O)OC)c(=O)n1C [Example 1, 5-ethoxy-4-methyl-2-(4-methyl-2-methoxycarbonyl-thien-3-yl-sulphonylaminocarbonyl)-2,4-dihydro-3H-1,2,4-triazol-3-one]	very strong activity against weeds	very strong activity against weeds											95%	95%	90%	95%	95%	95%		degree of damage, Maize (Maize [3]; 125 g of ai./ha): 60%; degree of damage, Digitaria (Digitaria; 125 g of ai./ha): 95%; degree of damage, Echinochloa (Echinochloa; 125 g of ai./ha): 95%; degree of damage, Lolium (Lolium [4]; 125 g of ai./ha): 90%; degree of damage, Sorghum (Sorghum [5]; 125 g of ai./ha): 95%; degree of damage, Amaranthus (Amaranthus; 125 g of ai./ha): 100%; degree of damage, Matricaria (Matricaria [6]; 125 g of ai./ha): 100%; degree of damage, Stellaria (Stellaria; 125 g of ai./ha): 100%; degree of damage to the plants (% damage vs untreated control), Maize (Maize [7]; pre-emergence, 30 g of ai./ha, after three weeks): 10%
CCOn1c(CC)nn(C(=O)NS(=O)(=O)c2c(C)csc2C(=O)OC)c1=O [Example 38]	very strong activity against weeds	very strong activity against weeds	10%	70%	90%		95%		95%	95%	0%								100%	degree of damage to the plants (% damage vs untreated control), Lolium (Lolium [8]; 60 g of ai./ha): 95%; degree of damage to the plants (% damage vs untreated control), Poa (Poa; 60 g of ai./ha): 70%; degree of damage to the plants (% damage vs untreated control), Sorghum (Sorghum [9]; 60 g of ai./ha): 60%; degree of damage to the plants (% damage vs untreated control), Ambrosia (Ambrosia; 60 g of ai./ha): 95%; degree of damage to the plants (% damage vs untreated control), Matricaria (Matricaria [10]; 60 g of ai./ha): 95%; degree of damage to the plants (% damage vs untreated control), Solanum (Solanum; 60 g of ai./ha): 95%
CCOC(=O)c1scc(C)c1S(=O)(=O)NC(=O)n1nc(OCC)n(C)c1=O [Example 54]	very strong activity against weeds	very strong activity against weeds	30%		95%	95%	95%	85%	100%	100%	0%		95%	95%	80%	95%	95%	95%	100%	
